Values joined by “and” are separate entries in the source; they are usually repeats but may differ in a detail not shown here. Equal entries are not always repeated.
How the values were obtained:
[1] = test system: LC3/GABARAPs (human Atg8 family); experiment: FP assay with Cy5-labelled p62 LIR tracer, statements on all LC3/GABARAPs; assay type: binding
[2] = target: T1, LC3A (Homo sapiens, UniProt Q9H492); experiment: Spectral shift assay (Dianthus), cysteine-labelled protein; assay type: binding; conditions: Repeat 1 and Repeat 2, listed as 10O5 (4)
Procedure: Affinity determination using spectral shift mode on Dianthus: To determine dissociation constants, the Dianthus instrument (NanoTemper Technologies GmbH, Germany) was used to monitor molecular interactions. […] Protein was labelled with RED-maleimide 2nd Generation (cat# MO-L014; NanoTemper Technologies GmbH). Labeling was carried out following the manufacturer protocol, using a 3:1 ratio dye:protein. […] Protein was purified in 30 mM HEPES, 100 mM NaCl, 0.05% Tween, pH 7.5. […] Measurements were performed in spectral shift mode with an LED excitation power of 100%. Data were analyzed using the DI.Screening Analysis Software (v.2.0.4) (NanoTemper Technologies GmbH, Germany) and quality criteria values including Δ Ratio, Signal-to-Noise-Ratio, Fit Saturation and KD values were determined.

[3] = test system: RPE1 cells; experiment: Cell growth assay (IncuCyte confluence over 72 h); assay type: cell-based; conditions: listed as 10O5
Procedure, shortened: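 Phase confluence (% area covered by cells) imaged every 2 h for 72 h after compound addition; cells in DMEM/10% FBS, seeded 24 h before treatment. Controls were 0.1% DMSO, 250 nM Torin1 and 200 ng/mL Bafilomycin (final). Each point averages three wells.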

[4] = Cell viability measurements; assay type: cell-based; set-up: Cell viability: scale not given here; conditions: two replicate columns; for Cell viability: listed as 10O5
Description: 1 Source data for Supplementary Fig. 8a-f are provided as a Source Data file.

[5] = target: T1, LC3A; experiment: FP assay with 10O5- and 8F20-based dye-linked tracers 16 and 17; conditions: LC3A; compound 3 for tracer 17, compound 4 for tracer 16
Description: (§1) The only experimental difference in our FP assay setup was the addition of 0.05% Tween-20, which is routinely used[27] to suppress unspecific binding of compounds to proteins.
(§2) Fluorescence polarization assay utilizing tracers 16 and 17 for interaction studies with LC3A
(§3) (upper panels) and LC3B (lower panels). The left panels depict protein titration measurements
(§4) detergent in the buffer to suppress unspecific binding. Middle panels depict displacement
Data were collected in technical
(§5) triplicates with error bars expressing the SD (n=3).

[6] = target: LC3B (Homo sapiens, UniProt Q9GZQ8); experiment: as above; conditions: LC3B; compound 3 for tracer 17, compound 4 for tracer 16
Description: as §1, §2, §3, §4
Data were collected in technical
as §5

**Q.** What does the source list for O=C1Nc2ccc(I)cc2C1=Cc1cc(Br)c(O)c(Br)c1 [compound 4]?
**A.** interaction with LC3/GABARAP family members in FP displacement assay [1]: weak interaction of 10O5 (4) with GABARAP family members; Initial Fluorescence ([2]; compound 15.2588 nM titrated against LC3A): 5485.239 and 8498.012; Initial Fluorescence ([2]; compound 30.5176 nM titrated against LC3A): 4967.649 and 8590.938; Initial Fluorescence ([2]; compound 61.0352 nM titrated against LC3A): 3893.892 and 7432.185; Initial Fluorescence ([2]; compound 122.07 nM titrated against LC3A): 3715.765 and 5942.313; Initial Fluorescence ([2]; compound 244.141 nM titrated against LC3A): 3805.917 and 4785.866; Initial Fluorescence ([2]; compound 488.281 nM titrated against LC3A): 2784.925 and 3093.111; Initial Fluorescence ([2]; compound 976.562 nM titrated against LC3A): 3008.559 and 2759.079; Initial Fluorescence ([2]; compound 1953.12 nM titrated against LC3A): 2614.532 and 2461.361; Initial Fluorescence ([2]; compound 3906.25 nM titrated against LC3A): 2609.726 and 2127.302; Initial Fluorescence ([2]; compound 7812.5 nM titrated against LC3A): 2627.775 and 2205.232; Initial Fluorescence ([2]; compound 15625 nM titrated against LC3A): 2084.943 and 1892.122; Initial Fluorescence ([2]; compound 31250 nM titrated against LC3A): 1913.624 and 1771.147; Initial Fluorescence ([2]; compound 62500 nM titrated against LC3A): 1934.175 and 2136.348; Initial Fluorescence ([2]; compound 125000 nM titrated against LC3A): 2010.201 and 1874.865; Initial Fluorescence ([2]; compound 250000 nM titrated against LC3A): 1863.832 and 1842.946; Initial Fluorescence ([2]; compound 500000 nM titrated against LC3A): 1618.141 and 1654.997; RPE1 cell growth ([3]; 100 nM, 0 h): 16 and 14; RPE1 cell growth ([3]; 100 nM, 2 h): 20 and 13 and 18; RPE1 cell growth ([3]; 100 nM, 4 h): 23 and 14 and 19; RPE1 cell growth ([3]; 100 nM, 6 h): 26 and 14 and 18; RPE1 cell growth ([3]; 100 nM, 8 h): 27 and 16 and 19; RPE1 cell growth ([3]; 100 nM, 10 h): 28 and 17 and 21; RPE1 cell growth ([3]; 500 nM, 0 h): 20 and 18 and 16; RPE1 cell growth ([3]; 500 nM, 2 h): 24 and 18; RPE1 cell growth ([3]; 500 nM, 4 h): 27 and 19; RPE1 cell growth ([3]; 500 nM, 6 h): 29 and 20 and 19; RPE1 cell growth ([3]; 500 nM, 8 h): 32 and 21 and 20; RPE1 cell growth ([3]; 500 nM, 10 h): 35 and 22; RPE1 cell growth ([3]; 1 uM, 0 h): 15 and 13 and 19; RPE1 cell growth ([3]; 1 uM, 2 h): 18 and 17; RPE1 cell growth ([3]; 1 uM, 4 h): 20 and 18; RPE1 cell growth ([3]; 1 uM, 6 h): 21 and 24 and 20; RPE1 cell growth ([3]; 1 uM, 8 h): 21 and 25 and 22; RPE1 cell growth ([3]; 1 uM, 10 h): 23 and 26 and 22; RPE1 cell growth ([3]; 1 uM, 12 h): 25; RPE1 cell growth ([3]; 3 uM, 0 h): 13 and 19 and 16; RPE1 cell growth ([3]; 3 uM, 2 h): 17 and 19; RPE1 cell growth ([3]; 3 uM, 4 h): 20 and 18; RPE1 cell growth ([3]; 3 uM, 6 h): 23 and 21 and 19; RPE1 cell growth ([3]; 3 uM, 8 h): 26 and 20 and 19; RPE1 cell growth ([3]; 3 uM, 10 h): 27 and 24 and 21; RPE1 cell growth ([3]; 3 uM, 12 h): 30 and 23; RPE1 cell growth ([3]; 5 uM, 0 h): 16 and 15 and 17; RPE1 cell growth ([3]; 5 uM, 2 h): 20 and 16 and 19; RPE1 cell growth ([3]; 5 uM, 4 h): 21 and 17; RPE1 cell growth ([3]; 5 uM, 6 h): 24 and 17 and 20; RPE1 cell growth ([3]; 5 uM, 8 h): 29 and 19 and 21; RPE1 cell growth ([3]; 5 uM, 10 h): 28 and 19 and 23; RPE1 cell growth ([3]; 10 uM, 0 h): 16 and 21 and 17; RPE1 cell growth ([3]; 10 uM, 2 h): 22 and 20; RPE1 cell growth ([3]; 10 uM, 4 h): 25 and 21 and 22; RPE1 cell growth ([3]; 10 uM, 6 h): 29 and 22; RPE1 cell growth ([3]; 10 uM, 8 h): 30 and 26 and 23; RPE1 cell growth ([3]; 10 uM, 10 h): 31 and 28 and 24; viability at 20 µM ([4]; log concentration [M] -4.69897): 104%; Cell viability ([4]; log concentration [M] -4.69897): 92.5568; viability at 7.5 µM ([4]; log concentration [M] -5.12494): 94.8%; Cell viability ([4]; log concentration [M] -5.12494): 95.6466; viability at 2.5 µM ([4]; log concentration [M] -5.60206): 94.2%; Cell viability ([4]; log concentration [M] -5.60206): 97.1871; viability at […] ([4]; log concentration [M] -6.00436): 95.7%; Cell viability ([4]; log concentration [M] -6.00436): 90.9151; viability at 0.3 µM ([4]; log concentration [M] -6.52288): 104%; Cell viability ([4]; log concentration [M] -6.52288): 93.3208; viability at 0.125 µM ([4]; log concentration [M] -6.90309): 101%; Cell viability ([4]; log concentration [M] -6.90309): 92.1984; viability at 0.05 µM ([4]; log concentration [M] -7.30103): 103%; Cell viability ([4]; log concentration [M] -7.30103): 94.2945; viability at 0.01625 µM ([4]; log concentration [M] -7.78915): 101%; Cell viability ([4]; log concentration [M] -7.78915): 89.5849; viability at […] ([4]; log concentration [M] -8.06399): 103%; Cell viability ([4]; log concentration [M] -8.06399): 99.4914; viability at 0.005 µM ([4]; log concentration [M] -8.30103): 99.7%; Cell viability ([4]; log concentration [M] -8.30103): 88.3293; viability at 0.0021 µM ([4]; log concentration [M] -8.67778): 100%; Cell viability ([4]; log concentration [M] -8.67778): 90.0519; displacement of dye-linked tracer by parent compound [5]: no displacement; displacement of dye-linked tracer by parent compound [6]: no displacement

— PMC11589570, “Critical assessment of LC3/GABARAP ligands used for degrader development and ligandability of LC3/GABARAP binding pockets” (Nature Communications, 2024)
